Assay in all cases: NCI tumour cell line growth inhibition, 48 h
Assay [1] relates to SF-268 CNS.
Assay [2] deals with SF-539 CNS.
The test system of assay [3] is K-562 leukemia.
The subject of assay [4] is 786-0 renal.
Assay [5] concerns HCT-15 colon.
Assay [6] deals with NCI-H226 lung.
Assay [7] relates to RXF 393 renal.
The test system of assay [8] is SW-620 colon.
Assay [9] concerns DU-145 prostate.

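Assay format: 96-well plates, 48-hour exposure. The concentration for 50% growth inhibition is given as GI50. Definition used: TGI = concentration required for complete inhibition of growth.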 Where a SMILES comes first, the peptide text is derived from it. A value given as a limit tells only on which side of the number the result lay.

On to `C=CC1(NS(=O)(=O)c2ccc(C)cc2)CCC(C(C)(C)C)CC1` (stereo unspecified), for which the TGI in assay [1], in assay [2], in assay [3], in assay [4], in assay [5] and in assay [6] was > 100 µM throughout. For the same molecule, the TGI in assay [7] was 54.8 µM; in assay [8], > 100 µM.

`CC1=C(Cl)C=CP(=O)(OC(C)C)C1` (stereo unspecified): the TGI in assay [1], in [2], in assay [3], in assay [4], in assay [5] and in [7] was > 100 µM each time. Further, the TGI in assay [8] was > 100 µM.

In the case of `COC(=O)C1C=NNC1C(=O)OC` (stereo unspecified), the TGI in [1], in [2], in assay [3], in assay [4], in assay [5] and in assay [6] was > 100 µM in each case. Further, the TGI in assay [7] and in assay [8] was > 100 µM in each case.

Consider `COc1ccc(-c2cc(-c3cc(Cl)cc(Br)c3O)[nH]c(=O)n2)cc1`, for which the TGI is 50 µM in assay [1]; 28.8 µM in assay [2]; 41.7 µM in assay [3]; 32 µM in assay [4]; 33.4 µM in assay [6]; 31.7 µM in assay [7]. The TGI in assay [8] was 46.9 µM.

For the molecule `Cc1cccc(N2C(=O)C(=O)C(c3nc4ccccc4s3)/C(=N/NC(=S)NN)C2=O)c1C` (stereo unspecified), the TGI in [1], in [2], in [3], in assay [4], in [5] and in assay [6] was > 100 µM throughout. The TGI in assay [7] and in assay [8] was > 100 µM in each case.

Consider `Cc1cc(N2CCCC2)nc(NCc2cc(Nc3ccnc4cc(Cl)ccc34)ccc2F)n1`, for which the GI50 was 1.36 µM in assay [1]; 1.55 µM in [2]; 1.34 µM in [4]; 1.06 µM in [5]; 1.43 µM in assay [7]; 1.3 µM in [9]. The TGI in [1] was 3.14 µM; in assay [2], 3.11 µM; in assay [4] it was 2.84 µM; in assay [5], 2.35 µM; in assay [7], 2.87 µM; in assay [9] it was 2.69 µM.

On to `C#CC1(O)c2ccccc2C(=O)c2ccccc21`, for which the TGI in assay [1], in assay [2], in assay [3], in [4], in [6] and in assay [7] was > 100 µM each time. Also, the TGI in [8] was > 100 µM.

Turning to `Clc1ccc2nc(-c3ccccc3)nc(Cl)c2c1`, the TGI in assay [1], in assay [2], in assay [3], in assay [4], in [5] and in assay [6] was > 100 µM throughout. Moreover, the results for the TGI in assay [7] and in assay [8] were 48.6 µM and > 100 µM, respectively.

For the molecule `CCCCN[C@H]1C2C3CC4C5CC(C42)C1(C)C53` (stereo partly specified), the TGI in [1], in assay [2], in assay [3], in assay [4], in assay [5] and in assay [6] was > 100 µM throughout. Also, the TGI in assay [7] and in assay [8] was > 100 µM in each case.

`Cc1ccc(NC(=S)SCCC(=O)O)cc1`: the TGI in assay [1], in assay [2], in assay [3], in [4], in assay [5] and in assay [6] was > 100 µM in each case. Further, the TGI in assay [7] and in assay [8] was > 100 µM throughout.

Regarding `O=S1(=O)CCCS(=O)(=O)C(c2ccccc2)=C1c1ccccc1`, the TGI in assay [1], in assay [2], in assay [3], in [4], in assay [5] and in assay [6] was > 100 µM throughout. In addition, the TGI in assay [8] was > 100 µM.

`CCC(C)C1NC(=O)C2CCCN2C(=O)CNC(=O)C(C)NC(=O)C(Cc2ccccc2)NC(=O)C(C(C)C)NC1=O` (stereo unspecified) (cyclo(GPIVFA); configuration not given here): the TGI in assay [1], in [2], in assay [4], in assay [5], in assay [6] and in assay [7] was > 100 µM in each case. For the same molecule, in [8], the TGI is > 100 µM.

`CCOC(=O)[C@H]1Nc2ccc([N+](=O)[O-])cc2C2c3ccccc3CC21` (stereo partly specified): the TGI was determined as 38.5 µM in assay [1]; 31.8 µM in assay [2]; 52.2 µM in [3]; 43.9 µM in [4]; 41.5 µM in [5]; 55.1 µM in assay [6]. The figures for the TGI in assay [7] and in assay [8] were 18.3 µM and 41.6 µM, respectively.

With `O=[N+]([O-])c1cc(Cl)ccc1OCc1ccccc1`, the TGI in [1], in [2], in assay [3], in assay [4], in [5] and in assay [7] was > 100 µM each time. For the same molecule, the TGI in assay [8] was > 100 µM.

As to `Cc1ccc(-c2cc(=O)c3cc(C)c(C)c(C(=O)O)c3o2)cc1N`, the TGI in assay [1], in assay [2], in assay [3], in assay [4], in assay [5] and in [6] was > 100 µM in each case. Besides, the TGI in assay [7] and in assay [8] was > 100 µM throughout.

As for `COc1ccc(/C=c2/sc3n(c2=O)NC2(CCC(C)CC2)NN=3)cc1` (stereo unspecified), the TGI in assay [1], in assay [2], in assay [3], in assay [4], in assay [6] and in assay [7] was > 100 µM each time. Moreover, the TGI in assay [8] is > 100 µM.

For the molecule `COc1ccc(/C(Cl)=C(\c2ccc(OCCN(C)C)cc2)c2ccc(OC(=O)C(C)(C)C)cc2)cc1`, the TGI was found to be 28.2 µM in [1]; 26.8 µM in [2]; 14.3 µM in assay [3]; 22.6 µM in assay [4]; 22.4 µM in [5]; 25.7 µM in assay [6]. Moreover, the TGI in assay [7] came to 21.7 µM; in assay [8], 28.6 µM.

Turning to `CCCCCCCCCCCCCCCC(=O)OCC1OC(OC)C2NP(=O)(N(CCCl)CCCl)OC1C2O` (stereo unspecified), the TGI in [1] is 14.8 µM; in assay [2], 7.29 µM; in [3], 24 µM; in assay [4], 3.85 µM; in assay [5] it was 14.2 µM; in assay [6], 32.2 µM. Also, the TGI worked out at 3.99 µM in assay [7], 54.8 µM in assay [9] and 17.4 µM in assay [8].

With `O=[N+]([O-])c1ccccc1C=NC12CC3CC(CC(C3)C1)C2`, the TGI in assay [1], in [2], in assay [3], in [4], in assay [5] and in assay [6] was > 100 µM each time. The TGI in [7] and in [8] was > 100 µM throughout.

As to `CNS(=O)(=O)NN(C)S(=O)(=O)c1ccc2ccccc2c1`, the TGI in assay [2], in assay [3], in [4], in assay [5], in assay [6] and in [7] was > 100 µM in each case. Also, the TGI in [8] is > 100 µM.

On to `O=C(Nc1cc(Cl)cc(Cl)c1)/C(Cc1nc2ccccc2[nH]c1=O)=N/NC(=O)c1ccncc1`, for which the TGI in assay [2], in assay [3], in [4], in [5] and in [8] was > 100 µM throughout.

As to `CC1C[C@]2(C[C@@H](C)C(=O)O2)O[C@@H]2CC3(C)[C@@H]4CCC5C(C)(C)OC(=O)C[C@H]6OO[C@]4(CC[C@]3(C)C12)CC56O` (stereo partly specified), the TGI in assay [2], in [4], in assay [5], in assay [6], in [7] and in assay [8] was > 100 µM in each case.

Consider `COc1ccc2c(c1)CC1c3c(ccc(OC)c3O)CC2N1C` (stereo unspecified), for which the TGI was > 100 µM in assay [1]; 54.6 µM in assay [2]; 58.9 µM in assay [3]; > 73.3 µM in assay [4]; > 100 µM in assay [5]; > 100 µM in assay [6]. Also, the TGI in assay [7] came out at 43.6 µM; in [8], 45.4 µM.

As for `CC1(C)C=N[N+]2(C)C3C=CC(CC3)C12` (stereo unspecified), the TGI in [1], in [2], in [3], in assay [4], in assay [5] and in assay [6] was > 100 µM each time. The TGI in assay [7] was > 100 µM.

For `O=C(CC1(O)C(=O)Nc2ccccc21)c1ccc(O)cc1` (stereo unspecified), the TGI in assay [1], in assay [2], in [3], in assay [4], in [5] and in [6] was > 100 µM throughout. For the same molecule, the TGI in [7] and in assay [8] was > 100 µM each time.

Turning to `C=C1C2CC(OC(C)=O)C3(C)C(c4ccoc4)OC(=O)[C@@H](O)[C@]13OC1C[C@H](OC(C)=O)C(C)(C)[C@H](CC(=O)OC)[C@]12C` (stereo partly specified), the TGI in assay [2], in assay [3], in assay [4], in [5], in [6] and in assay [8] was > 100 µM in each case.

On to `CC(=O)[CH-]C(=O)c1ccccc1.CC(=O)[CH-]C(=O)c1ccccc1.Cl.[O-]c1ccccn1.[O-]c1ccccn1.[Ti+4]`, for which the GI50 in assay [1], in assay [2], in assay [3], in assay [4], in assay [5] and in [6] was > 100 µM throughout. Further, the GI50 in [8] was > 100 µM. The TGI in [1], in assay [2], in assay [3], in [4], in assay [5] and in assay [6] was > 100 µM throughout. The TGI in [8] is > 100 µM.

`COc1ccc2c(c1)[n+]([O-])c(-c1ccc(C)cc1)c(N)[n+]2[O-]`: the TGI in assay [2], in assay [3], in assay [4], in assay [5], in assay [6] and in assay [8] was > 100 µM in each case.

For `CC12CO[C@@](C)(CC(S(=O)(=O)c3ccccc3)C1)O2` (stereo partly specified), the TGI in assay [1], in assay [2], in assay [3], in assay [4], in assay [5] and in assay [7] was > 100 µM each time. In addition, the TGI in assay [8] is > 100 µM.

In the case of `CCOC(=O)C1=C(C)N(NC(N)=O)C(C)(O)C12CCOC2=O` (stereo unspecified), the TGI in assay [1], in [2], in assay [3], in assay [4], in assay [5] and in assay [6] was > 100 µM in each case. Further, the TGI in [8] is > 100 µM.

For `CCN(CC)C(=O)N1CCN(C=S)CC1`, the TGI in [1], in assay [2], in assay [3], in [4], in [5] and in [6] was > 100 µM each time. Also, the TGI in [7] and in assay [8] was > 100 µM throughout.

Regarding `CCOC(=N)CC(=O)Nc1cccc(Cl)c1`, the TGI in [1], in assay [2], in assay [3], in assay [4], in [6] and in [7] was > 100 µM each time. In [8], the TGI is > 100 µM.

The values above are taken from PubChem BioAssay (NCI).
